Test results taken from patent publication EP4775208A1, “USE OF PRMT5 INHIBITOR IN TREATMENT OF TUMORS OR CANCERS” (Apeiron Therapeutics (Hong Kong) Ltd., priority 2023, dated 2025).

Target: hERG ion channel (Homo sapiens, UniProt Q12809)
Test: hERG ion channel inhibition experiment (manual patch clamp, HEK293)
Type: cell-based
Settings: HEK293 cells stably expressing hERG, n=2
Experimental: III. hERG Ion Channel Inhibition Experiment
The compounds used in this experiment are specific embodiments of the present invention, with reference to compound AMG473 as an example from Amgen's patent WO 2022/169948A1, identified as example 473.
2. Cell Line and Cell Culture
Stably expressing hERG ion channel HEK293 cell line (Catalog: K1236) was purchased from Invitrogen. This cell line was cultured in a medium containing 85% DMEM, 10% dialyzed fetal bovine serum, 0.1 mM non-essential amino acid solution, 100 U/mL penicillin-streptomycin solution, 25 mM HEPES, 5 µg/mL blasticidin, and 400 µg/mL geneticin. […]
• 1) Place glass slides containing HEK293 cells in the perfusion chamber of the micro-manipulation station. • 2) Under an Olympus IX71 or IX73 inverted microscope, position suitable cells in the central field of view using a ×10 objective. […] The peak of the tail current represents the size of the hERG current. • 9) The hERG current induced by the test compound is continuously recorded for 120 seconds before administration to assess the stability of the tested cells in producing hERG currents. […] Record the last 5 hERG current values after the recorded current stabilizes, and take their average as the final current value at a specific concentration. […]

hERG ion channel, sequence (Q12809 whole entry): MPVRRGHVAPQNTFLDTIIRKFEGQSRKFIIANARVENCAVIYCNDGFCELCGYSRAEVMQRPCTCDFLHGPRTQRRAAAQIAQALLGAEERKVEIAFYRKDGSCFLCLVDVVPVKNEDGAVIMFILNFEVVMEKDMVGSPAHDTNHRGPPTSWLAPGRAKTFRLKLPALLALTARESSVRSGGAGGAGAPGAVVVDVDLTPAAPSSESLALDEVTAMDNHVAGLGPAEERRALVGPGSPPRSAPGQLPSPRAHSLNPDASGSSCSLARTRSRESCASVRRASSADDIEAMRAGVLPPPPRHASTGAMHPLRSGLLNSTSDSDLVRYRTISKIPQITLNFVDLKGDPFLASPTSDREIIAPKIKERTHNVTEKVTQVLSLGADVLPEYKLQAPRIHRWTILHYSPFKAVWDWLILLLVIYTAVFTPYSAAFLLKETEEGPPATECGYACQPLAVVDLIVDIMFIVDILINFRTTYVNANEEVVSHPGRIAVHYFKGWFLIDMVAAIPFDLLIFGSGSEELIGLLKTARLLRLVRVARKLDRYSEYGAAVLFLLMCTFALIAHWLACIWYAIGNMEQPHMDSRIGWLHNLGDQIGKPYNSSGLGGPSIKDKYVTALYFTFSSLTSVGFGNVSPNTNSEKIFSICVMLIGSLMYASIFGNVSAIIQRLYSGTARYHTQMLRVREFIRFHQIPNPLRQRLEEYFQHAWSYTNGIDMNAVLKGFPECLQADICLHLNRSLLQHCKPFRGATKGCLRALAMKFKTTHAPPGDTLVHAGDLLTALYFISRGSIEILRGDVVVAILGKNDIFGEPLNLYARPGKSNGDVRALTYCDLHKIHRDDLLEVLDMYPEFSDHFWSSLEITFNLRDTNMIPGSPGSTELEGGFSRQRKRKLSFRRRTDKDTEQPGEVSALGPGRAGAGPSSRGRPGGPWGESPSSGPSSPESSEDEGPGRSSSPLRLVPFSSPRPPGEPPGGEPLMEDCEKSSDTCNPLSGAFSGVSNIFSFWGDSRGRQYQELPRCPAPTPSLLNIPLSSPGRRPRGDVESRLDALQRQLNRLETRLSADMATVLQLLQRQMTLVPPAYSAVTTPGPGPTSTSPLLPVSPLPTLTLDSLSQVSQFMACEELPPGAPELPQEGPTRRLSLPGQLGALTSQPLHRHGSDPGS

“(S)-4-amino-7-fluoro-N-methyl-N-(6-(triflu oromethyl)-2,3-dihydr obenzofuran-3-yl)imi dazo[1,5-a]quinoxalin e-8-carboxamide [Example 29]” was tested, and the IC50 was 11.4 µM.
